Assay results taken from patent US10888090B2, “Plant growth promoters and methods of using them” (KING ABDULLAH UNIVERSITY OF SCIENCE AND TECHNOLOGY, priority 2015, dated 2021).

Assays:
[1] = tested on: rice seedlings (cultivar 'Dongjin'); test: Rice seedlings grown hydroponically with the compound: crown roots and biomass; type: in vivo; conditions: hydroponic
Procedure: FIG. 10: 3-OH-β-apo-13-Carotenone treatment increases the number of crown roots in rice. Seeds of cultivar ‘Dongjin’ were pre-germinated in water for 2 days followed by transfer to filter papers placed in petri dishes containing half-strength liquid Murashige and Skoog (MS) medium. The cultures were incubated at 24° C. for one week. Thereafter, the seedlings were grown hydroponically in half-strength modified Hoagland nutrient solution containing different concentrations of 3-OH-β-apo-13-carotenone for 2 weeks in the greenhouse. The medium was changed twice a week, data were recorded 2 weeks after treatment. (FIG. 10A) Number of crown roots of rice seedlings 2 weeks after treatment. Each value represents the mean of 10 seedlings. Error bar indicates standard error. Asterisks denote a significant difference from the mock treatment by student t-test (* P<0.05; ** P<0.01). FIG. 11: Root and shoot biomass of rice seedlings treated with 3-OH-β-apo-13-Carotenone. One week-old seedlings of cultivar ‘Dongjin’ were grown hydroponically in half-strength modified Hoagland nutrient solution containing different concentrations of 3-OH-β-apo-13-Carotenone for two weeks in the greenhouse. The medium was changed twice a week. After two weeks, roots and shoots were collected separately and dried in an incubator at 80° C. for 3 days. Dried samples were weighed using a Mettler Toledo balance. […]

[2] = tested on: Arabidopsis (col-0) seedlings; test: Hypocotyl-derived adventitious root formation in Arabidopsis seedlings; type: in vivo, Arabidopsis thaliana; conditions: 2.5 μM; arising after dark-light transition
From the text: FIG. 12A: 3-OH-β-apo-13-Carotenone treatment increases the number of hypocotyl-derived adventitious roots in a concentration-dependent manner (14 days old plants). For a better resolution, see FIG. 12B. FIG. 12B: 3-OH-β-apo-13-Carotenone treatment increases the number of hypocotyl-derived adventitious roots. (A) 4-day-old Arabidopsis (col-0) seedlings were transferred to 3-OH-β-apo-13-Carotenone containing plates at the indicated concentrations and grown for 10 days. Red arrows indicate adventitious roots on hypocotyl (B) Average number of adventitious roots. Seeds were germinated on 1 MS medium with 0.5% sucrose (pH 5.7) and grown for 4 days in the dark. Error bars represent means±S.E. Asterisks indicate significant differences as calculated using a standard Student's t-test (*P<0.005, ** <0.001). […] Therefore, we tested whether β-apo-13-carotenone can also induce adventitious root formation in the model plant Arabidopsis thaliana. As shown in FIGS. 12A and 12B, the compound exerted a clear induction on the number of hypocotyl-derived adventitious roots that usually arise spontaneously after dark-light transition. Highest activity—around 50% increase, was obtained with 2.5 μM concentrations (FIGS. 12A and 12B).

[3] = tested on: Leaf explants of 12-day-old seedlings; test: Leaf-derived adventitious roots (leaf explants of 12-day-old seedlings); type: in vivo, Arabidopsis thaliana
From the text: FIG. 13: 3-OH-β-apo-13-Carotenone treatment increases the number of leaf-derived adventitious roots (Leaf explants of 12-day-old seedlings). […] Therefore, we tested whether β-apo-13-carotenone can also induce adventitious root formation in the model plant Arabidopsis thaliana. As shown in FIGS. 12A and 12B, the compound exerted a clear induction on the number of hypocotyl-derived adventitious roots that usually arise spontaneously after dark-light transition. Highest activity—around 50% increase, was obtained with 2.5 μM concentrations (FIGS. 12A and 12B).

Arabidopsis = test: Number of lateral roots in Arabidopsis (14 days old plants); type: in vivo
Procedure: FIG. 14: 3-OH-β-apo-13-Carotenone treatment of Arabidopsis increases the number of lateral roots in a concentration-dependent manner (14 days old plants). 0-5 μM corresponds to different concentrations of synthetic 3-OH-β-apo-13-Carotenone. Puri corresponds to synthetic 3-OH-β-apo-13-Carotenone after HPLC purification. […] Therefore, we tested whether β-apo-13-carotenone can also induce adventitious root formation in the model plant Arabidopsis thaliana. As shown in FIGS. 12A and 12B, the compound exerted a clear induction on the number of hypocotyl-derived adventitious roots that usually arise spontaneously after dark-light transition. Highest activity—around 50% increase, was obtained with 2.5 μM concentrations (FIGS. 12A and 12B). […] To ensure that the biological activity observed is caused by 3-OH-β-apo-13-carotenone and not by a possible contamination with a different compound that may be included during the organic synthesis, HPLC was used to isolate highly pure 3-OH-β-apo-13-carotenone, and the purified compound was applied.

Arabidopsis (Col-0) [4] = test: Lateral root density in Arabidopsis, single and combined treatment with auxin; type: in vivo; conditions: 3-OH-β-apo-13-carotenone 2.5 μM, auxin 100 nM; 9 days
Procedure: FIG. 15: Combined 3-OH-β-apo-13-Carotenone and auxin treatment of Arabidopsis has a synergetic effect on lateral root density. 3-OH-β-apo-13-carotenone and auxin (indole-3-acetic acid) were applied at 2.5 μM and 100 nM, concentrations, respectively. Arabidopsis (Col-0) seeds were germinated in/MS-plates (with 0.5% sucrose) containing individual and both compounds together and grown in 16 light/8 dark period, 22° C. for 9 days. Graph represents both actual density and in percentage. *P<0.05; Student's t test; **P<0.05; Student's t test. Also investigated was possible effect of combining 3-OH-β-apo-13-carotenone with auxin.

Arabidopsis (Col-0) [5] = test: Primary root length in Arabidopsis; type: in vivo; conditions: 2.5 μM, 9 days
Procedure: FIG. 16: 3-OH-β-apo-13-Carotenone treatment of Arabidopsis increases the length of primary root. Arabidopsis (Col-0) seeds were germinated on/MS-plates (with 0.5% sucrose) containing 3-OH-β-apo-13-carotenone and grown in 16 light/8 dark period, 22° C. for 9 days. *P<0.05; Student's t-test; **P<0.05; Student's t test. 3-OH-β-apo-13-carotenone was applied at 2.5 μM concentration. Also investigated was the effect of the compound on primary root length.

Greenhouse experiments = type: in vivo
root hairs = conditions: at high concentration; cited from earlier work

Row | SMILES | number of crown roots ([1]; micromolar concentrations, 2 weeks after treatment) | increase in root and shoot biomass ([1]; two weeks, dried samples) | increase in number of hypocotyl-derived adventitious roots (highest activity) [2] | number of leaf-derived adventitious roots [3] | number of lateral roots (Arabidopsis; 2.5 μM, synthetic compound) | lateral root number (Arabidopsis; compound after HPLC purification) | increase in lateral root density, single treatment (Arabidopsis (Col-0) [4]) | primary root length (Arabidopsis (Col-0) [5]) | growth and flowering in greenhouse experiments (Greenhouse experiments) | tip growth of root hairs (root hairs)
1 | CC(=O)/C=C/C=C(C)/C=C/C1=C(C)CC(O)CC1(C)C (stereo not drawn) [3-OH-β-apo-13-carotenone] | obvious increase in the number of crown roots | around 30% | around 50% | noticeable increase (duplication) | clearly increased the number of lateral roots | increase in lateral root number was detected similar to that observed before | around 20% | small but significant increase | growth-promoting effects and early flowering | 
2 | O=C(O)Cc1c[nH]c2ccccc12 [auxin, indole-3-acetic acid, reference compound] |  |  |  |  |  |  | ~30% |  |  | 
3 | CC(=O)/C=C/C=C(C)/C=C/C1=C(C)CCCC1(C)C [d'orenone, β-apo-13-carotenone] |  |  |  |  |  |  |  |  |  | block tip growth of root hairs
